One data set relates to H1299 cells. Kind of data set: XTT cytotoxicity assay on H1299 cells. It counts as cell-based. The method, then: (§1) Cell growth in the presence of PDCs was measured by a commercial XTT assay kit (Cell Proliferation Kit, XTT based; Biological Industries, Israel). The cells (10^4 cells/well) were seeded in 96 well plates and incubated overnight in complete growth medium. The cells were washed and then cultured in 100 μl of new medium containing various concentrations of drug or peptides, for 24 h, 48 h, and 72 h. The XTT solution was added to each well and the plate was further incubated 2-3 h at 37° C. The optical density in the wells was measured at both 480 nm and 680 nm using a TECAN Infinite M200 ELISA reader. All the tests were done in triplicates, and each experiment was repeated three times.
(§2) The cytotoxicity of the Peptide-Drug conjugates (PDCs) was tested in a range of concentrations (0.5-50 μM) against H1299 and DKMG cells using two protocols. In the first protocol, cells were pre-incubated with P6, P9, P6-CPT, and P9-CPT for 6 hours, the medium was removed, and a fresh, drug-free complete medium was added for additional 24 h (designated as 6h24h) or 48 h (6h48h). In the second protocol, cells were exposed continuously to PDCs for 24 h, 48 h, and 72 hours.

The test system of another data set is DKMG cells. The experiment in a line: XTT cytotoxicity assay on DKMG cells. Type of data set: cell-based. The procedure:
as §1, §2

Data set [1] concerns H1299, H1975 and DKMG cells. The experiment in a line: Phage display biopanning with NGS, selection of EGFR-specific peptides. It counts as cell-based. The settings on record: 3 rounds of biopanning, K562-derived sequences excluded. The method, then:
A heptapeptide phage display library (Ph.D.-C7C Phage Display Library Kit, New England Biolabs, USA) was used for the in vitro biopanning experiments. All cell lines were individually incubated with phages from the stock library. […] Adherent cells (H1299, […] and DKMG) were plated at a density of 10^5 cells/ml in a 6-well plate. When the culture reached 80% confluence, the first well was incubated with phage library (10^11 pfu/10 μl) for 1 h at 37° C. with gentle stirring. The medium containing unbound phage was collected and transferred to the second, similar well and incubated again. The procedure was repeated with the third well. Cells in the third wells were washed four times with 0.5% Tween-20 in PBS. Then, 0.5 ml of elution buffer (0.2 M glycine-HCl, pH 2.2) was added and incubated for 10 min at 4° C.; the pH was neutralized by addition of 75 μl of 1 M Tris-HCl buffer, pH 9.0. The supernatant containing cell surface binding phage was collected. The cells were then lysed by incubation for 1 h at 4° C. with 2 ml of 30 mM Tris-HCl and 1 mM EDTA, pH 8.0. The medium was collected and centrifuged at 1,500 rpm for 5 min and the supernatant containing cell-internalized phage was transferred to a new tube. The internalized and surface-bound phages were amplified according to the manufacturer's instructions. An aliquot of the phages was retained for sequencing (see below) and the remainder was subjected to two additional rounds of biopanning. […]
Finally, two groups of peptides were constructed; the first included sequences that were present in all three EGFR+ve cell lines and included about 416 sequences; the second was divided into three subgroups, one for each cell line, wherein the subgroup for H1299 included some 1666 sequences, the subgroup for H1975 included some 10437 sequences, the subgroup for DKMG included some 981 sequences. From this list, top eleven S—S bridged cyclic peptides sequences were selected by their count in the sequencing data (the highest number of reads). […]

Data set [2] is described as follows: Stability of peptide-drug conjugates in complete growth medium (LC-MS). It counts as in vitro ADME. The note with it: RPMI and DMEM complete growth medium, 37° C., read-out: half-life of degradation. The procedure:
At each time point, 10 μl of sample was taken and mixed with 25 μl ACN/H2O (1:1, v.v.). The samples were centrifuged at 1,400 rpm for 15 min. Supernatants were collected, filtered and analyzed by liquid chromatography mass spectrometry (LC-MS).
The stability of P6-CPT and P9-CPT was measured in RPMI and DMEM complete growth medium at 37° C. for 0 h, 0.5 h, 3 h, 7 h, 24 h, 48, and 72 h. The degradation of the conjugates and the CPT release was analyzed by LC-MS. The stability of these conjugates and drug release rates were similar.

Data set [3] relates to H1299, DKMG and K562 cells. The experiment in a line: Flow cytometry binding of peptide-FITC conjugates. Type of data set: cell-based. The note with it: 2.5 μM FITC-labeled peptide.
Description: Cells with 80-90% confluence were incubated with 2.5 μM FITC-conjugated peptides in RPMI-5% FBS for 1 h at 37° C. Cells were scrapped from the culture flask and washed twice with 2 ml FCSB.
This concentration was chosen based on preliminary dose dependence study.
The test system of data set [4] is EGFR+ve cells (H1299, DKMG) versus K562 cells. The experiment in a line: Flow cytometry internalization of peptide-FITC conjugates. Type of data set: cell-based. The settings on record: 2.5 μM FITC-labeled peptide. The text has this:
Analysis was done with FACS cell analyzer.

Data set [5] has as its system H1299 tumor (EGFR positive) versus K562 tumor (EGFR negative). Kind of data set: In vivo targeting in mice with dual H1299 and K562 xenografts. The note with it: nude mice, tail vein, 100 μg.
Description: Animal protocols were approved by the Institutional Animal Care and Use Committee at Ariel university Israel. Nude mice were injected with either H1299 cells in the right flank and with K562 cells in the left flank, so that each mouse bore either dual H1299 and K562 xenografts. When tumors reached, 100 mm^3 mice were injected via tail vein with 100 μg of FITC-labeled cyclic peptide, according to some embodiments of the present invention, and imaged using IVIS® SpectrumCT 8- and 24-hours post injection. Immediately afterwards, the mice were sacrificed for ex vivo imaging of organs.
Signal from the targeted tumor compared to other tissues was determined for each animal.
The target in data set [6] is T1, epidermal growth factor receptor (EGFR), wild type (human, UniProt P00533 25-1210).
T1 construct: whole, on cells; The target is inferred from tumour cell lines that overexpress EGFR, compared with EGFR-negative cells; No purified receptor was used; also called EGFRWT; EGFR WT
The experiment in a line: confocal microscopy, 25 uM FITC-peptide, 3 h, H1299 cells.

Data set [7] has as its target T2, EGFR variant III (EGFRvIII), on DKMG glioblastoma cells (human, UniProt P00533 25-1210).
T2 construct: whole, on cells; DKMG cells express both wild type EGFR (92% of cells) and EGFRvIII (82%); All results on DKMG cells are written against this molecule; also called EGFR mutant; EGFRVIII DKMG
The experiment in a line: flow cytometry, 2.5 uM FITC-peptide on DKMG cells (EGFR WT and EGFRvIII).

Where [8] appears, read: H1299, 24 h continuous exposure.
[9] abbreviates: H1299, 48 h continuous exposure.
Where [10] appears, read: H1299, 72 h continuous exposure.
The mark [11] stands for this setting: H1299, 6 w 48 h (6 h pre-incubation, then 48 h drug-free medium).
The mark [12] stands for this setting: H1299, first protocol (6 h pre-incubation), up to 48 h.
The mark [13] stands for this setting: H1299, second protocol, continuous exposure.

The record followed here is patent US20250346634A1, “CYCLIC PEPTIDES FOR TARGETING EPIDERMAL GROWTH FACTOR RECEPTOR AND MUTATIONS THEREOF FOR DRUG DELIVERY” (priority 2022, published 2025).

Read-outs that look alike come from different tables or passages of the source. Bridge positions count the residues as written; N and C are the ends. Square brackets hold non-standard residues; d marks the D form. Peptide text beside a SMILES is read from it. * marks the point of attachment. ξ: configuration not given here. Camptothecin(20S-OCO) = CC[C@@]1(OC(=O)*)C(=O)OCc2c1cc1n(c2=O)Cc2cc3ccccc3nc2-1; FITC = O=C1OC2(c3ccc(O)cc3Oc3cc(O)ccc32)c2ccc(NC(=S)*)cc21; ξThr(3R) = C[C@@H](O)C(N)C(=O)O; Abu = CC[C@H](N)C(=O)O; GABA = NCCCC(=O)O

For the molecule `CSCC[C@@H]1NC(=O)[C@H](C)NC(=O)[C@H](CC(N)=O)NC(=O)[C@H](C(C)C)NC(=O)[C@@H](N)CSSC[C@@H](C(N)=O)NC(=O)[C@H](Cc2ccc(O)cc2)NC(=O)[C@H](CO)NC(=O)[C@H](CCC(N)=O)NC1=O` [Peptide P9] (H-CVNAMQSYC-NH2; disulfide 1-9), in the data set with H1299 cells, the cytotoxicity entry is reported as “did not demonstrate cytotoxicity”. In addition, the IC50 in the data set with H1299 cells (setting [8]) stood at 22.3 ± 0.2 µM; in the data set on H1299 cells (setting [9]) it was 27.3 ± 1.7 µM; in the data set with H1299 cells (setting [10]), 22.5 µM; in the data set on DKMG cells (24 h continuous exposure) it was 16.4 ± 1.9 µM; in the data set with DKMG cells (48 h continuous exposure), 17.5 ± 2.3 µM; in the data set on DKMG cells (72 h continuous exposure), 17.5 ± 1.6 µM. Moreover, the “Cell line (peptide specificity per cell line; source of the cells from which the peptide was identified)” value in data set [1] is listed as “DKMG”.

For `CC[C@H](C)[C@@H]1NC(=O)[C@H](Cc2ccc(O)cc2)NC(=O)[C@H](CO)NC(=O)CNC(=O)[C@@H]2CCCN2C(=O)[C@H](C(C)C)NC(=O)[C@H](Cc2cnc[nH]2)NC(=O)[C@@H](NC(=O)CCCNC(=O)O[C@]2(CC)C(=O)OCc3c2cc2n(c3=O)Cc3cc4ccccc4nc3-2)CSSC[C@@H](C(N)=O)NC1=O` [Peptide P6-CPT] ({Camptothecin(20S-OCO)-GABA}-CHVPGSYIC-NH2; disulfide 1-9), the IC50 is 32 µM in the data set on H1299 cells (setting [11]), 14.5 µM in the data set with H1299 cells (setting [8]) and 5.5 µM in the data set with H1299 cells (setting [9]). For the same molecule, the results for the cytotoxicity result in the data set on H1299 cells (setting [12]) and with H1299 cells (setting [13]) were “exhibited cytotoxic effect after 48 h” and “observed after 24 hours post exposure”, respectively. Moreover, the half-life in data set [2] fell in the range of 6 to 7 h.

For the molecule `CC[C@@H]1NC(=O)[C@@H](NC(=O)CCCNC(=O)O[C@]2(CC)C(=O)OCc3c2cc2n(c3=O)Cc3cc4ccccc4nc3-2)CSSC[C@@H](C(N)=O)NC(=O)[C@H](Cc2ccc(O)cc2)NC(=O)[C@H](CO)NC(=O)[C@H](CCC(N)=O)NC(=O)[C@H](CCSC)NC(=O)[C@H](C)NC(=O)[C@H](CC(N)=O)NC1=O` [Peptide P9-CPT] ({Camptothecin(20S-OCO)-GABA}-C[Abu]NAMQSYC-NH2; disulfide 1-9), the IC50 amounted to 21.5 ± 2.1 µM with H1299 cells (setting [11]); 8.4 ± 0.5 µM in the data set on H1299 cells (setting [8]); 2.2 ± 0.3 µM with H1299 cells (setting [9]); 1.2 ± 0.1 µM in the data set with H1299 cells (setting [10]); 32 ± 1.6 µM in the data set with DKMG cells (6 w 48 h (6 h pre-incubation, then 48 h drug-free medium)); 6.76 µM in the data set on DKMG cells (24 h continuous exposure). The IC50 worked out at 2.7 ± 1 µM in the data set with DKMG cells (48 h continuous exposure) and 0.2 ± 0.1 µM with DKMG cells (72 h continuous exposure). The cytotoxicity result was “exhibited cytotoxic effect after 48 h” with H1299 cells (setting [12]) and “observed after 24 hours post exposure” in the data set with H1299 cells (setting [13]). Further, the cytotoxic effect entry with DKMG cells (first protocol) was “noted after 48 hours”. Moreover, the “IC50 concentration higher compared to the free CPT” value with DKMG cells (first protocol, 48 hours) amounted to 4 fold. Moreover, the half-life in [2] fell in the range of 6 to 7 h.

For the molecule `C[C@@H]1NC(=O)[C@@H](NC(=O)CCCNC(=S)Nc2ccc3c(c2)C(=O)OC32c3ccc(O)cc3Oc3cc(O)ccc32)CSSC[C@@H](C(N)=O)NC(=O)[C@H](CCCNC(=N)N)NC(=O)CNC(=O)[C@@H]2CCCN2C(=O)[C@H]([C@@H](C)O)NC(=O)[C@H](Cc2ccc(O)cc2)NC(=O)[C@H](CCC(N)=O)NC1=O` [FITC-labeled P11] ({FITC-GABA}-CAQYTPGRC-NH2; disulfide 1-9), in data set [3], the “binding (flow cytometry)” value was “bind to H1299 and DKMG selectively but not to K562 cells”. Besides, in [4], the “internalization (flow cytometry)” value is listed as “internalized only into to EGFR+ve cells”. The “accumulation in other organs” value in data set [5] (ex vivo imaging of organs) is on record as “No significant accumulation”. Also, the tumor accumulation entry in [5] (imaging 8 and 24 hours post injection) was “accumulates in the H1299 tumor compared to the K562 tumor”.

`CC(C)C[C@@H]1NC(=O)[C@H](Cc2c[nH]c3ccccc23)NC(=O)[C@H](CC(N)=O)NC(=O)[C@@H](N)CSSC[C@@H](C(N)=O)NC(=O)[C@H](CCC(=O)O)NC(=O)C([C@@H](C)O)NC(=O)[C@H](CCCNC(=N)N)NC(=O)[C@H](CO)NC1=O` (stereo partly drawn) [Peptide P10] (H-CNWLSR[ξThr(3R)]EC-NH2; disulfide 1-9): the “Cell line (peptide specificity per cell line; source of the cells from which the peptide was identified)” value in [1] is on record as “DKMG”.

B1: FITC-labeled cyclic peptide P6, c(CHVPGSYIC) (peptide)
peptide: {FITC-GABA}-CHVPGSYIC-NH2
modifications: disulfide 1-9
SMILES: CC[C@H](C)[C@@H]1NC(=O)[C@H](Cc2ccc(O)cc2)NC(=O)[C@H](CO)NC(=O)CNC(=O)[C@@H]2CCCN2C(=O)[C@H](C(C)C)NC(=O)[C@H](Cc2c[nH]cn2)NC(=O)[C@@H](NC(=O)CCCNC(=S)Nc2ccc3c(c2)C(=O)OC32c3ccc(O)cc3Oc3cc(O)ccc32)CSSC[C@@H](C(N)=O)NC1=O
notes: also called FITC-P6; P6-FITC conjugate
With B1, the binding result in data set [6] and in [7] was “binds” in each case.
